Earlier results, collected in patent US7586020B2, “Methods for determining effects of maternal treatments on offspring” (priority 1998, dated 2009).

Test system: (YS×VY)FI female mice
Details: between about 17 and 24 months of age

## Cl[C@H]1[C@H](Cl)[C@@H](Cl)[C@@H](Cl)[C@H](Cl)[C@H]1Cl [lindane]
  mortality, lindane-treated versus untreated control mice: no differences in mortality
